Measured values from patent US8357676B2, “Ansamycin formulations and methods of use thereof” (Infinity Discovery, Inc., priority 2006, dated 2013).
Converted amounts (≈) assume the structure as drawn. Like-named read-outs stand apart in the source and are kept apart here.

Columns and labels:
[1] = Equilibrium solubility in SIF; format: physicochemical; details: for solubility: simulated intestinal fluid (SIF), 37 °C, pH 6.8, fassgf or other biorelevant, thermodynamic from solid, read-out: Eq. Solubility of active; for Crystalline 17-AG Equilibrium Solubility: 37° C., average values
Experimental: Solutions were placed at 37° C., and sample aliquots were removed at 24, 48, 72, & 96 hours. Sample aliquots were filtered (0.45 uM PVDF), diluted in SIF/MeOH and measured in triplicate on UV spectrometer.

[2] = In vitro dissolution of amorphous solid dispersions in simulated intestinal fluid at 37° C.; format: physicochemical
Experimental: […] To each vial was added simulated intestinal fluid (5 mL) and each was shaken at 37° C. […] The samples were then diluted in MeOH and tested using UV method for solution concentration.

[3] = Oral bioavailability of amorphous 17-AG/PVP dispersion vs crystalline 17-AG, single oral capsule dose; format: in vivo; details: 15 mg/kg, beagle dogs
Experimental: A 12% 17-AG/PVP (w/w) dispersion was made utilizing rotary evaporation and characterized for purity, residual solvent level, and amorphous content as described, filled into HPMC capsules and dosed into dogs at a level of 15 mg/kg. Blood was collected pre-dose, at 15 minutes, at 30 minutes, 1 hour, 2 hours, 4 hours, 6 hours, 12 hours, and 24 hours post dose into tubes containing sodium heparin. Collected blood samples were immediately placed on wet ice and refrigerated centrifuge for isolation of plasma within 30 min of collection. Isolated plasma was saved in labeled screw cap freezer vials or eppendorf tubes and stored frozen (−70° C.) until analyzed for plasma 17-AG levels. The design of the study is as follows. A single group of dogs consisting of 2 males & 2 females was utilized for dosing, with a week washout in between each dose.

[4] = In vivo exposure of various oral formulations of 17-AG, single oral dose; details: female beagle dogs
Experimental: The oral bioavailability of various formulations of the compound 17-AG was investigated by making various oral formulations, dosing beagle dogs and measuring 17-AG levels in blood plasma at various time points following a single oral dose. In addition, the effect of PVP on enhancing exposure was investigated by its addition to many of the tested formulations.
In brief, different crystalline, solvated, and amorphous forms of 17-AG were dosed either as filled capsules or as suspensions. In addition, various 17-AG solutions utilizing a range of different organic, anionic, & non-ionic components were dosed by oral gavage.
The crystalline, solvated, and amorphous forms of 17-AG were made as previously described and blended with either anhydrous lactose or PVP in a Turbula blender for 15 minutes. […]
The nanosuspension was made by levigating crystalline 17-AG by high shear in a microfluidizer (Microfluidics Corp, Model: M-110L) for 10-20 minutes in Tween-80. Mean particle size (d50: […]) was measured by laser light diffraction (Malvern Corp, Mastersizer 2000).
Blood was collected pre-dose, 15, 30 minutes, 1, 2, 4, and 8 hours post-dose into tubes containing sodium heparin. […] Isolated plasma was saved in labeled screw cap freezer vials or eppendorf tubes and stored frozen (−70° C.) until analyzed for plasma 17-AG levels. […]

[5] = 12% load analog in PVP K-30 amorphous dispersion, target conc 2 mg/mL, SIF 37° C., t = 5 min
[6] = 12% load analog in PVP K-30 dispersion, SIF 37° C., t = 5 min

**Q.** With `CO[C@H]1C[C@H](C)CC2=C(N)C(=O)C=C(NC(=O)/C(C)=C/C=C\[C@H](OC)[C@@H](OC(N)=O)/C(C)=C/[C@H](C)C1OC(C)=O)C2=O` (stereo partly shown) [11-acetyl-17-AG, 11-acetyl-17-aminogeldanamycin] as the compound, how does the solubility [1] read?
**A.** The solubility was 0.088 mg/mL (≈ 150 µM).

**Q.** What about the “Supersaturated concentration of analog/polymer dispersions in SIF at 37° C. (t = 5 min)” value [2, 5] of the same compound?
**A.** Its value is 0.167 mg/ml.

**Q.** And the “Fold increase relative to equilibrium solubility” value [2, 6]?
**A.** The value was 2 x.

**Q.** For `COC1CC(C)CC2=C(N)C(=O)C=C(NC(=O)C(C)=CC=CC(OC)C(OC(N)=O)C(C)=CC(C)C1=O)C2=O` (stereo not shown) [11-oxo-17-AG, 11-oxo-17-aminogeldanamycin], which “Eq. Solubility of active” value ([1]; pH 6.8) is on record?
**A.** The value was 0.330 mg/mL.

**Q.** What about the “Supersaturated concentration of analog/polymer dispersions in SIF at 37° C. (t = 5 min)” value [2, 5] of the same compound?
**A.** Its value is 0.395 mg/ml.

**Q.** And the “Fold increase relative to equilibrium solubility” value [2, 6]?
**A.** The value was 0 x.

**Q.** Which solubility [1] does the source give for `CO[C@H]1/C=C\C=C(/C)C(=O)NC2=CC(=O)C(NC(C)=O)=C(C[C@@H](C)C[C@H](OC)[C@H](O)[C@@H](C)/C=C(\C)[C@@H]1OC(N)=O)C2=O` [17-acetyl-AG, 17-acetylgeldanamycin] here?
**A.** The solubility was 0.35 mg/mL (≈ 596 µM).

**Q.** And the “Supersaturated concentration of analog/polymer dispersions in SIF at 37° C. (t = 5 min)” value [2, 5]?
**A.** The value was 1.568 mg/ml.

**Q.** And the “Fold increase relative to equilibrium solubility” value [2, 6]?
**A.** Its value is ≥ 5 x.

**Q.** With `CO[C@H]1/C=C\C=C(/C)C(=O)NC2=CC(=O)C(N3CCC3)=C(C[C@@H](C)C[C@H](OC)[C@H](O)[C@@H](C)/C=C(\C)[C@@H]1OC(N)=O)C2=O` [17-azetidinyl-G, 17-azetidinylgeldanamycin] as the compound, how does the solubility [1] read?
**A.** The solubility was 0.14 mg/mL (≈ 239 µM).

**Q.** What about the “Supersaturated concentration of analog/polymer dispersions in SIF at 37° C. (t = 5 min)” value [2, 5] of the same compound?
**A.** Its value is 0.167 mg/ml.

**Q.** What about the “Fold increase relative to equilibrium solubility” value [2, 6] of the same compound?
**A.** Its value is 0 x.

**Q.** What does the source list for `CO[C@H]1/C=C\C=C(/C)C(=O)NC2=CC(=O)C(NCc3ccccc3)=C(C[C@@H](C)C[C@H](OC)[C@H](O)[C@@H](C)/C=C(\C)[C@@H]1OC(N)=O)C2=O` [17-benzyl-AG, 17-benzylaminogeldanamycin]?
**A.** solubility [1]: 0.015 mg/mL (≈ 23.6 µM); Supersaturated concentration of analog/polymer dispersions in SIF at 37° C. (t = 5 min) [2]: 0.165 mg/ml (10x); Supersaturated concentration in SIF at 5 min ([2]; 12% load analog in PVP K-30 dispersion, SIF 37° C., t = 5 min, the values are: supersaturated concentration in SIF at 5 min): 0.165 mg/mL

**Q.** For `CO[C@H]1/C=C\C=C(/C)C(=O)NC2=CC(=O)C(NCC3CC3)=C(C[C@@H](C)C[C@H](OC)[C@H](O)[C@@H](C)/C=C(\C)[C@@H]1OC(N)=O)C2=O` [17-cyclopropylmethyl-AG, 17-cyclopropylmethylaminogeldanamycin], which solubility [1] is on record?
**A.** The solubility was 0.034 mg/mL (≈ 56.7 µM).

**Q.** What about the “Supersaturated concentration of analog/polymer dispersions in SIF at 37° C. (t = 5 min)” value [2, 5] of the same compound?
**A.** Its value is 0.0573 mg/ml.

**Q.** What about the “Fold increase relative to equilibrium solubility” value [2, 6] of the same compound?
**A.** The value was 2 x.

**Q.** For `CO[C@H]1/C=C\C=C(/C)C(=O)NC2=CC(=O)C(NCCF)=C(C[C@@H](C)C[C@H](OC)[C@H](O)[C@@H](C)/C=C(\C)[C@@H]1OC(N)=O)C2=O` [17-fluoroethyl-AG, 17-(fluoroethyl)aminogeldanamycin], which solubility [1] is on record?
**A.** The solubility was 0.04 mg/mL (≈ 67.6 µM).

**Q.** And the “Supersaturated concentration of analog/polymer dispersions in SIF at 37° C. (t = 5 min)” value [2, 5]?
**A.** Its value is 0.234 mg/ml.

**Q.** What about the “Fold increase relative to equilibrium solubility” value [2, 6] of the same compound?
**A.** The value was 5 x.

**Q.** With `CO[C@H]1/C=C\C=C(/C)C(=O)NC2=CC(=O)C(N)=C(C[C@@H](C)C[C@H](OC)[C@H](O)[C@@H](C)/C=C(\C)[C@@H]1OC(N)=O)C2=O` [Crystalline 17-AG, 17-amino-geldanamycin] as the compound, how does the “Crystalline 17-AG Equilibrium Solubility” value ([1]; SIF pH 6.8, 0% PVP) read?
**A.** Its value is 0.0041 mg/mL.

**Q.** And the “Crystalline 17-AG Equilibrium Solubility” value ([1]; SIF pH 6.8, 0.5% PVP)?
**A.** The value was 0.0059 mg/mL.

**Q.** And the “Crystalline 17-AG Equilibrium Solubility” value ([1]; SIF pH 6.8, 1.0% PVP)?
**A.** Its value is 0.0065 mg/mL.

**Q.** And the “Crystalline 17-AG Equilibrium Solubility” value ([1]; SIF pH 6.8, 2.5% PVP)?
**A.** The value was 0.0087 mg/mL.

**Q.** What about the “increase of equilibrium solubility of crystalline 17-AG” value ([1]; SIF pH 6.8, 5% PVP vs 0% PVP) of the same compound?
**A.** The value was ~3 fold.

**Q.** What about the “Crystalline 17-AG Equilibrium Solubility” value ([1]; SIF pH 6.8, 5.0% PVP) of the same compound?
**A.** The value was 0.0112 mg/mL.

**Q.** And the “exposure / oral bioavailability (in words)” value ([3]; single oral capsule)?
**A.** The value was “very low oral bioavailability”.

**Q.** What about the “Plasma levels of 17-AG following dosing” value ([3]; uncoated HPMC capsule) of the same compound?
**A.** The value was “below quantifiable limits”.

**Q.** For `CO[C@H]1/C=C\C=C(/C)C(=O)NC2=CC(=O)C(N)=C(C[C@@H](C)C[C@H](OC)[C@H](O)[C@@H](C)/C=C(\C)[C@@H]1OC(N)=O)C2=O` [EtOAc Solvate of 17-AG, 17-amino-geldanamycin], which “exposure after oral dosing (in words)” value [4] is on record?
**A.** The value was “low exposure”.

**Q.** With `CO[C@H]1/C=C\C=C(/C)C(=O)NC2=CC(=O)C(N)=C(C[C@@H](C)C[C@H](OC)[C@H](O)[C@@H](C)/C=C(\C)[C@@H]1OC(N)=O)C2=O` [amorphous 17-AG, 17-amino-geldanamycin] as the compound, how does the “exposure after oral dosing (in words)” value [4] read?
**A.** The value was “significant exposure”.
